The source of these data is PubChem BioAssay AID2477 (Broad Institute, 2010).

Where “and” joins values, the source holds several entries; their conditions need not be identical. Equal values may be shown once.

The assay relates to Streptococcus pyogenes UMAA2166 viability, BacTiter-Glo luminescence, 6 h. Nature of the assay: GAS bacterial viability reduction – luminescence, BacTiter-Glo, strain UMAA2166, counter-screen for streptokinase expression inhibitor project, dose response (AID 2477).

For `CCCOc1ccc(-c2nc(Oc3ccccc3)c3ccccc3n2)cc1`, the EC50 runs as follows: (measured here: retest run 2) over 500 µM; (measured here: retest run 3) over 500 µM; (measured here: retest run 4) over 500 µM.

As to `COc1ccc(-c2nc(OC)c3ccccc3n2)cc1`, the EC50 reads like this: (measured here: retest run 2) over 500 µM; (measured here: retest run 3) over 500 µM.

With `COc1cccc(-c2nc(OC(C)C)c3ccccc3n2)c1`, the concentration for a half-maximal effect (EC50) runs as follows: (measured here: retest run 2) over 500 µM; (measured here: retest run 3) over 500 µM; (measured here: retest run 4) over 500 µM.

`Cc1ccc(Sc2ccc(NC(=O)c3ccc(F)cc3)cc2C#N)cc1`: the EC50 by setting is: (measured here: retest run 2) over 500 µM; (measured here: retest run 3) over 500 µM; (measured here: retest run 4) over 500 µM.

For the compound `N#Cc1cc(NC(=O)c2ccc(Cl)cc2)ccc1Sc1ccccc1`, the EC50 (measured here: retest run 2) was found to be 70.5 µM and the EC50 (measured here: retest run 3) was determined as 69.3 µM.

With `COc1ccc(Sc2ccc(NC(=O)c3ccccc3Cl)cc2C#N)cc1`, the EC50 was > 500 µM (inactive) and 36.7 µM. This compound had an EC50 (measured here: retest run 2) of over 500 µM. For the same compound, the EC50 (measured here: retest run 3) amounted to 45.4 µM. The EC50 (measured here: retest run 4) was over 500 µM.

Take `CCCOc1ccc(-c2nc(Oc3ccc(OC)cc3)c3ccccc3n2)cc1`: the EC50 was over 500 µM (measured here: retest run 2), over 500 µM (measured here: retest run 3) and over 500 µM (measured here: retest run 4).

In the case of `CCCOc1ccc(-c2nc(OC)c3ccccc3n2)cc1`, the EC50 is over 500 µM (measured here: retest run 2), over 500 µM (measured here: retest run 3) and over 500 µM (measured here: retest run 4).

`CC(C)Oc1nc(-c2ccc(Cl)cc2)nc2ccccc12` registered an EC50 (measured here: retest run 2) of 47 µM, an EC50 (measured here: retest run 3) of over 500 µM and an EC50 (measured here: retest run 4) of over 500 µM.

Regarding `COc1ccc(S(=O)(=O)c2ccc(NC(=O)c3ccccc3Cl)cc2C#N)cc1`, the EC50 (measured here: retest run 2) is over 500 µM, the EC50 (measured here: retest run 3) was over 500 µM and the EC50 (measured here: retest run 4) was over 500 µM.

Compound `COc1ccc(Sc2ccc(NC(=O)c3cccc(Cl)c3)cc2C#N)cc1` showed an EC50 (measured here: retest run 2) of over 500 µM.

With `COc1nc(-c2ccccc2)nc2ccccc12`, the EC50 runs as follows: (measured here: retest run 2) over 500 µM; (measured here: retest run 3) over 500 µM; (measured here: retest run 4) over 500 µM.
